Assay results taken from patent publication US20230320984A1, “TOFACITINIB-CONTAINING ANHYDROUS ELASTOMER-BASED GEL FORMULATIONS” (Vyne Therapeutics Inc., priority 2022, published 2023).
Where two headings read alike, the source gives them in different places. Blank lines part the entries; values can stand above or below the compound they belong to.

Assays:
[1] = Chemical stability of formulations (Method H); type: physicochemical; settings: gel with Tofacitinib Citrate 1.0% and Fingolimod HCl 0.01% (Table 38)
Protocol: Where another active agent such as fingolimod is present in the formulations the samples are analyzed for that active agent and its degradation products by HPLC. […] The gradient elution is employed.

[2] = cited from earlier work
[3] = Toxicokinetics / pK in minipigs (Method T); settings: day 1; tofacitinib 0.6% fingolimod 0.005% gel group
Protocol: (§1) The animals are not fasted prior to blood collection, with the exception of the intervals that coincide with fasting for clinical pathology collections.
(§2) If necessary, the samples are frozen on dry ice prior to being placed in the freezer. […] Samples are stored at the bioanalytical laboratories in a freezer set to maintain −80±10° C. until analysis.
(§3) Samples designated for analysis of fingolimod and fingolimod phosphate are mixed gently, lysed with an equal volume of deionized water, vortexed for approximately 1 minute, divided into two approximately equal aliquots, transferred to uniquely labeled polypropylene tubes and frozen in a freezer set to maintain −70° C. If necessary, the samples are frozen on dry ice prior to being placed in the freezer. The samples for fingolimod analysis are shipped with a temperature monitoring device to bioanalytical laboratories. Samples are stored at the bioanalytical laboratories in a freezer set to maintain −75±15° C. until analysis.
(§4) Whole blood is analyzed for concentration of fingolimod and fingolimod phosphate using a validated analytical procedure for the simultaneous quantitation of both analytes.
(§5) TK samples collected on Days 49 and 56 from recovery animals in Groups 1, 2, 3, 5, and 6 are also analyzed. […]

[4] = Human equivalent dose, safety factor and predicted exposure from the minipig NOAEL
[5] = Visual solubility evaluation of Fingolimod free base; type: physicochemical; settings: for solubility: organic solvent or mixture, thermodynamic from solid, visual, RT
Protocol: A visual solubility evaluation of Fingolimod free base was performed.

[6] = system: Reconstructed Human Epidermis (RHE) exposed to Th2 cytokines IL-4, IL-13, IL-25; experiment: Reconstructed Human Epidermis Th2 model for AD efficacy (Method S); type: cell-based; settings: 48 h
Protocol: Reconstructed Human Epidermis (RHE) tissues are produced and grown by StratiCELL. To generate the morphological and functional aspects of AD, RHE samples are exposed to Th2 cytokines IL-4, IL-13, IL-25. Th-2 cytokines are applied for 48 h in the culture medium of epidermis. Test formulations are applied simultaneously with the cytokines on the stratum corneum of the epidermis during the same 48 h. The tissue morphology is assessed by histology and hemalum/eosin (H/E) staining—quantification of a fluorescent dye (biotin) diffusion through the epidermis in order to evaluate the barrier function.

[7] = system: Human skin from cosmetic reduction surgery; experiment: Skin penetration (IVPT), vertical diffusion cell (Method A); type: in vitro ADME
Protocol: The skin is dosed with approx. 6 mg of formulation to achieve a dose of ˜ 10 mg/cm2. Receptor solution is collected at pre-determined intervals over the course of 24 hours and analyzed using a liquid chromatography with tandem mass spectrometry (LC-MS/MS) analytical method.
Following 24 hours, the residual formulation is removed from the surface of the skin. The skin surface is tape-stripped up to five times to remove residual formulation and the top of the skin surface layers (Stratum Corneum). The epidermis is then heat-separated from the dermis. The active agent is extracted from the skin layers and the amount of active agent delivered to the epidermis and dermis is then determined by LC-MS/MS.

[8] = human, in vivo
Protocol: Values below the limit of concentration are omitted from determination of geometric mean and geometric % CV.
Samples designated for analysis of fingolimod and fingolimod phosphate are collected and processed for shipment to bioanalytical laboratories. Frozen samples are thawed at room temperature and homogenized by vortexing. 10 μL of ISTD working solution (WS ISTD2 50 ng/mL in methanol/water, 50/50, V/V) is addeded to Eppendorf tubes each containing 200 sample (exception blank samples for which 10 μL of methanol/water, 50/50, V/V is added). Samples are vortexed for 5 sec and 800 μL of acetonitrile is added to each sample and vortexed for additional 10 sec. Next samples are centrifuged for 10 min at 14000 rpm at 5° C. and 900 μL is transferred to hemolyse tube. The samples are evaporated at approximately 40° C. […]
Whole blood is analyzed for concentration of fingolimod and fingolimod phosphate using a validated analytical procedure for the simultaneous quantitation of both analytes. […] After, the analyte is separated on a Kinetex Biphenyl column (50×3.0 mm, 2.6 μm) and analyzed using electrospray ionization (ESI) tandem mass spectrometry (MS/MS) in the multiple reaction monitoring mode (MRM). […]

[9] = minipig, in vivo
Protocol: as §1, §2, §3, §4, §5

[10] = system: S1P receptors (S1P1 and S1P3-5); settings: cited from earlier work
[11] = estimated from Table 43a, epidermis assumed 80 μm, skin 500 μm, density 1.0 g/cm^3
[12] = gel with Fingolimod HCl […] (Table 42), Mean (n = 5)
[13] = gel with Tofacitinib Citrate 1.0% and Fingolimod HCl 0.01% (Table 43a), Mean (n = 5)

Compound: CCCCCCCCc1ccc(CCC(N)(CO)CO)cc1 [fingolimod, 2-amino-2-[2-(4-octylphenyl)ethyl]propane-1,3-diol]
Assay of Fingolimod, % LC ([1]; 2 months at 40° C.): 97.2 % LC | Assay of Fingolimod, % LC ([1]; 2 months at 50° C.): 95.0 % LC | Assay of Fingolimod, % LC ([1]; 3 weeks at 5° C.): 100.3 % LC | Assay of Fingolimod, % LC ([1]; 3 weeks at 40° C.): 99.9 % LC | Assay of Fingolimod, % LC ([1]; 3 weeks at 50° C.): 94.1 % LC | Assay of Fingolimod, % LC ([1]; Initial): 99.9 % LC | solubility ([2]; organic solvents, such as ethanol, DMSO and dimethyl formamide): soluble | solubility ([2]; water): sparingly soluble | quantifiability in blood [3]: not quantifiable | human equivalent dose (HED) ([4]; from minipig NOAEL, minipig 10 kg, human 60 kg): 2.21 mg/kg/day | safety factor over the NOAEL of the 6-week minipig dermal toxicity study ([4]; maximum daily application of 2 g dual active gel): 669 fold | visual solubility at RT ([5]; alcohols): very good solubility | visual solubility at RT ([5]; most of organic solvents tested): good solubility | solubility ([5]; Diisopropyloxide): < 1.1 mg/mL | solubility ([5]; Ethanol): > 20 mg/mL | solubility ([5]; Methanol): > 20 mg/mL | solubility ([5]; Toluene): < 1.7 mg/mL | visual solubility at RT ([5]; water, toluene, diisopropyloxide and methyl ethyl ketone): very low soluble | barrier function (biotin immunofluorescence) ([6]; 0.001% w/w and 0.01% w/w): reduced the Th2-induced barrier alteration | tissue morphology (histology) ([6]; 0.001% w/w and 0.01% w/w): reduced the Th2-induced barrier alteration | barrier function (biotin immunofluorescence) ([6]; 0.1% and 1%): Increased barrier alteration | tissue morphology (histology) ([6]; 0.1% w/w and 1% w/w): increased fragilization was observed with junction/adhesion loss and disorganization of cell layers | Dermis concentration, μg/g Based on the Mean (n = 5) [7, 11]: 0.6 µg/g | Epidermis concentration, μg/g Based on the Mean (n = 5) [7, 11]: 3.4 µg/g | estimated concentration of active in dermis ([7]; formulation with 1.0% tofacitinib citrate and […] fingolimod hydrochloride): 0.6 µg/mL | estimated concentration of active in epidermis ([7]; formulation with 1.0% tofacitinib citrate and […] fingolimod hydrochloride, epidermis assumed 80 μm): 3.4 µg/g | Amount of Fingolimod recovered, % applied dose, Dermis [7, 12]: 2.59% | Amount of Fingolimod recovered, % applied dose, Epidermis [7, 12]: 1.98% | Amount of Fingolimod recovered, % applied dose, Receptor fluid [7, 12]: ND (not detected (below LOQ of 0.25 ng/mL)) | Amount of Fingolimod recovered, ng, Dermis [7, 12]: 49.16 ^ ng | Amount of Fingolimod recovered, ng, Receptor fluid [7, 12]: ND (not detected (below LOQ of 0.25 ng/mL)) | Amount of Fingolimod recovered, % applied dose, Dermis [7, 13]: 1.44% | Amount of Fingolimod recovered, % applied dose, Epidermis [7, 13]: 1.59% | Amount of Fingolimod recovered, % applied dose, Receptor fluid [7, 13]: ND (not detected (below LOQ of 0.25 ng/ml)) | Amount of Fingolimod recovered, ng, Dermis [7, 13]: 14.82 ng | Amount of Fingolimod recovered, ng, Epidermis [7, 13]: 16.21 ng | Amount of Fingolimod recovered, ng, Receptor fluid [7, 13]: ND (not detected (below LOQ of 0.25 ng/ml)) | whole blood concentrations (all below the assay LLOQ) [8]: < 0.08 ng/mL

whole blood concentrations (all below the assay LLOQ) [8]: < 0.08 ng/mL
Compound: fingolimod-phosphate
quantifiability in blood [9]: only quantifiable in the 0.2% fingolimod gel group | affinity for four of the five S1P receptors [10]: 0.3 to 3.1 nM
